pIC50: −log10 of the molar value.
Target: T1, Human plasma kallikrein (Homo sapiens, UniProt P03952)
T1 construct: yields a heavy chain (371 amino acids) and a light chain (248 amino acids); purchased Enzyme Research Laboratories
Experiment: Plasma Kallikrein Assay
Type: biochemical
Details: purified Human plasma kallikrein 0.5 nM, substrate Acetyl-K-P-R-AFC, pH 7.4
Description: The effectiveness of a compound of the present invention as an inhibitor of plasma kallikrein can be determined using a relevant purified serine protease, and an appropriate synthetic substrate. The rate of hydrolysis of the chromogenic or fluorogenic substrate by the relevant serine protease was measured both in the absence and presence of compounds of the present invention. Assays were conducted at rt or at 37° C. […] A decrease in the rate of fluorescence change in the presence of inhibitor is indicative of enzyme inhibition. Such methods are known to one skilled in the art. The results of this assay are expressed as the half-maximal inhibitory concentrations (IC50), or the inhibitory constant, Ki.
Plasma kallikrein determinations were made in 50 mM HEPES buffer at pH 7.4 containing 150 mM NaCl, 5 mM CaCl2), and 0.1% PEG 8000 (polyethylene glycol; Fisher Scientific). […]
Times required to achieve equilibration between enzyme and inhibitor were determined in control experiments. The reactions were performed under linear progress curve conditions and fluorescence increase measured at 405 Ex/510 Em nm. […] IC50 was determined by inflection point from a four parameter logistic curve fit. Ki was calculated using the Cheng Prusoff equation, Ki=IC50/(1+([S]/Km)).

T1 sequence (P03952 391-638 limits assumed): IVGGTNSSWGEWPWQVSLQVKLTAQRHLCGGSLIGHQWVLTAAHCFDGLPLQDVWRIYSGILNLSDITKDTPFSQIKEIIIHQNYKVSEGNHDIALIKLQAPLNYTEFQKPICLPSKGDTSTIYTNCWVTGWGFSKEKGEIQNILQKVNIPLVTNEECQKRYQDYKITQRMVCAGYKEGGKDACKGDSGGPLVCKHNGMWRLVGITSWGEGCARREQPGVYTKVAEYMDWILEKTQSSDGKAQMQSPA
T1 sequence (P03952 20-390 partner limits assumed): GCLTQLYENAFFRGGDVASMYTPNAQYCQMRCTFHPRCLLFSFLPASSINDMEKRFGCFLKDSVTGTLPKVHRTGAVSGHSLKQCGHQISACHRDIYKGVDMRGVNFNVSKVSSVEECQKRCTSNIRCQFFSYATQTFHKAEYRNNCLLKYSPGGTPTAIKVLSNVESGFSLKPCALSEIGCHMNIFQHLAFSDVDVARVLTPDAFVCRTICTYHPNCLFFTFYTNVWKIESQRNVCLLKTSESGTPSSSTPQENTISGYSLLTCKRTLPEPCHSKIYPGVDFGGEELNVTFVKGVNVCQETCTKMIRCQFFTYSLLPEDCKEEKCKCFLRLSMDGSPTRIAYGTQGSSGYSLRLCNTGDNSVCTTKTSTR

| Compound | pIC50 |
| --- | --- |
| CC1C2CC2CN1c1ncc(C(CO)n2cc(NC(=O)c3cncc(-c4c(C(F)F)ccc(Cl)c4F)n3)cn2)cn1 (single isomer, unassigned) [Example 48, 6-(3-Chloro-6-(difluoromethyl)-2-fluorophenyl)-N-(1-((S or R)-2-hydroxy-1-(2-((1S,2R,5R or 1R, 2S, 5S)-2-methyl-3-azabicyclo[3.1.0]hexan-3-yl)pyrimidin-5-yl)ethyl)-1H-pyrazol-4-yl)pyrazine-2-carboxamide] | 6.14 |
| CN(C)C(=O)[C@@H]1CCCN1c1ccc(Cn2cc(NC(=O)c3cncc(-c4c(C(F)F)ccc(Cl)c4F)n3)cn2)cn1 [Example 125, (S)-6-(3-Chloro-6-(difluoromethyl)-2-fluorophenyl)-N-(1-((6-(2-(dimethylcarbamoyl)pyrrolidin-1-yl)pyridin-3-yl)methyl)-1H-pyrazol-4-yl)pyrazine-2-carboxamide] | 7.55 |
| CC(c1cnc(N2CC[C@H]2CN2CC(C)(O)C2)nc1)n1cc(NC(=O)c2cncc(-c3c(C(F)F)ccc(Cl)c3F)n2)cn1 (stereo partly drawn) [Example 174, 6-(3-Chloro-6-(difluoromethyl)-2-fluorophenyl)-N-(1-(1-(2-((S)-2-((3-hydroxy-3-methylazetidin-1-yl)methyl)azetidin-1-yl)pyrimidin-5-yl)ethyl)-1H-pyrazol-4-yl)pyrazine-2-carboxamide] | 8.64 |
| CC(c1cnc(N2C[C@H]3C[C@H]3C2C(=O)N(C)C)nc1)n1cc(NC(=O)c2cncc(-c3c(C(F)F)ccc(Cl)c3F)n2)cn1 (single isomer, unassigned) [Example 201, (1R,2S,5S or 1S,2R,5R)-3-(5-((S or R)-1-(4-(6-(3-Chloro-6-(difluoromethyl)-2-fluorophenyl)pyrazine-2-carboxamido)-1H-pyrazol-1-yl)ethyl)pyrimidin-2-yl)-N,N-dimethyl-3-azabicyclo[3.1.0]hexane-2-carboxamide] | 8.21 |
| CC(c1cnc(N2CC[C@H]2[C@@H](C)N[C@@H]2CCC[C@H]2O)nc1)n1cc(NC(=O)c2cncc(-c3c(C(F)F)ccc(Cl)c3F)n2)cn1 (stereo partly drawn) [Example 193, 6-(3-Chloro-6-(difluoromethyl)-2-fluorophenyl)-N-(1-(1-(2-((S)-2-((R)-1-(((1R,2R)-2-hydroxycyclopentyl)amino)ethyl)azetidin-1-yl)pyrimidin-5-yl)ethyl)-1H-pyrazol-4-yl)pyrazine-2-carboxamide] | 8.09 |
| CN(CCO)c1ccc(Cn2cc(NC(=O)c3cncc(-c4c(C(F)F)ccc(Cl)c4F)n3)cn2)cn1 [Example 121, 6-(3-Chloro-6-(difluoromethyl)-2-fluorophenyl)-N-(1-((6-((2-hydroxyethyl)(methyl)amino)pyridin-3-yl)methyl)-1H-pyrazol-4-yl)pyrazine-2-carboxamide] | 7.74 |

Results, then the compound that gave them:

| pIC50 | Compound |
| --- | --- |
| 7.36 | O=C(Nc1cnn(Cc2cnc(N3CCCC3C3(O)CC3)nc2)c1)c1cncc(-c2c(C(F)F)ccc(Cl)c2F)n1 (stereo not drawn) [Example 107, 6-(3-Chloro-6-(difluoromethyl)-2-fluorophenyl)-N-(1-((2-(2-(1-hydroxycyclopropyl)pyrrolidin-1-yl)pyrimidin-5-yl)methyl)-1H-pyrazol-4-yl)pyrazine-2-carboxamide] |
| 8.02 | O=C(Nc1cnn(Cc2cnc(N3CCCC3CN3C[C@H](F)[C@@H](F)C3)nc2)c1)c1cncc(-c2c(C(F)F)ccc(Cl)c2F)n1 (stereo partly drawn) [Example 158, 6-(3-Chloro-6-(difluoromethyl)-2-fluorophenyl)-N-(1-((2-(2-(((35,4S)-3,4-difluoropyrrolidin-1-yl)methyl)pyrrolidin-1-yl)pyrimidin-5-yl)methyl)-1H-pyrazol-4-yl)pyrazine-2-carboxamide] |
| 8.46 | O=C(Nc1cnn(Cc2ccc(N3CCCC3CCO)nc2)c1)c1cncc(-c2c(C(F)F)ccc(Cl)c2F)n1 (stereo not drawn) [Example 115, 6-(3-Chloro-6-(difluoromethyl)-2-fluorophenyl)-N-(1-((6-(2-(2-hydroxyethyl)pyrrolidin-1-yl)pyridin-3-yl)methyl)-1H-pyrazol-4-yl)pyrazine-2-carboxamide] |
